One assay addresses T1, human PPARdelta (Homo sapiens, UniProt Q03181).
T1 construct: amino acids S139-Y441; expressed in transfected cells
T1 sequence (Q03181 139-441): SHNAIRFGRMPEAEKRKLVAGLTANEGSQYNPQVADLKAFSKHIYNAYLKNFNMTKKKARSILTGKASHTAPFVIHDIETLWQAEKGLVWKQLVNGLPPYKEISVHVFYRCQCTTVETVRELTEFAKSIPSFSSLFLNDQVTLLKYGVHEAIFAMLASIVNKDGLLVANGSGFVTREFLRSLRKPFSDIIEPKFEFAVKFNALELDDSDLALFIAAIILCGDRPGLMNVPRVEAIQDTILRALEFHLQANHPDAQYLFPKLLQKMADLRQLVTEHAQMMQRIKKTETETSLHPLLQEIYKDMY
Briefly: cellular PPARdelta assay (luciferase reporter, stably transfected HEK cell line). Format: cell-based. To be noted: GR-GAL4-humanPPARdelta-LBD. The method, then:
(§1) The potency of substances which bind to human PPARdelta and activate it in an agonistic manner is analyzed using a stably transfected HEK cell line (HEK=human embryo kidney) which is referred to here as PPARdelta reporter cell line. In analogy to the assay described for PPARalpha, the PPARdelta reporter cell line also contains two genetic elements, a luciferase reporter element (pdeltaM-GAL4-Luc-Zeo) and a PPARdelta fusion protein (GR-GAL4-humanPPARdelta-LBD) which mediates expression of the luciferase reporter element depending on a PPARdelta ligand. The stably and constitutively expressed fusion protein GR-GAL4-humanPPARdelta-LBD binds in the cell nucleus of the PPARdelta reporter cell line via the GAL4 protein portion to the GAL4 DNA binding motifs 5′-upstream of the luciferase reporter element which is stably integrated in the genome of the cell line. There is only little expression of the luciferase reporter gene in the absence of a PPARdelta ligand if fatty acid-depleted fetal calf serum (cs-FCS) is used in the assay. PPARdelta ligands bind and activate the PPARdelta fusion protein and thereby stimulate expression of the luciferase reporter gene. The luciferase which is formed can be detected by means of chemiluminescence via an appropriate substrate.
The production of the stable PPARdelta reporter cell line is based on a stable HEK-cell clone which was stably transfected with a luciferase reporter element. This step was already described above in the section “construction of the PPARalpha reporter cell line”. […]
The activity of PPARdelta agonists is determined in a 3-day assay in exact analogy to the procedure already described for the PPARalpha reporter cell line except that the PPARdelta reporter cell line and a specific PPARdelta agonist was used as a standard to control test efficacy.
Background: Reporter assays use an easily measured gene product as a stand-in for the process of interest.

In a further assay the target is T2, human PPARalpha (Homo sapiens, UniProt Q07869).
T2 construct: amino acids S167-Y468; expressed in transfected cells
T2 sequence (Q07869 167-468): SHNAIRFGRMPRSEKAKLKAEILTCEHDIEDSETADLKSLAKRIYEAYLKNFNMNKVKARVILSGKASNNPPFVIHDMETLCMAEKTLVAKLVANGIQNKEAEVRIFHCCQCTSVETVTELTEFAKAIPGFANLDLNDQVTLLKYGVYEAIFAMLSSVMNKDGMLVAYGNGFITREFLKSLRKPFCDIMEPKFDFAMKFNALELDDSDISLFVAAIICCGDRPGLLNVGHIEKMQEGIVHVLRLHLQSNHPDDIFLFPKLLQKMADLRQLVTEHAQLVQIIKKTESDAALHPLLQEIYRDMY
The assay can be described thus: cellular PPARalpha assay (luciferase reporter, stably transfected HEK cell line). Format: cell-based. The method, then:
as §1, with “PPARalpha” for “PPARdelta”, “It” for “In analogy to the assay described for PPARalpha, the PPARdelta reporter cell line also”, “(GR-GAL4-humanPPARalpha-LBD)” for “(GR-GAL4-humanPPARdelta-LBD)”, “GR-GAL4-humanPPARalpha-LBD” for “GR-GAL4-humanPPARdelta-LBD”, “weak” for “little”, “stimulate the” for “stimulate”
The PPARalpha reporter cell line was prepared in two stages. Firstly, the luciferase reporter element was constructed and stably transfected into HEK cells. For this purpose, five binding sites of the yeast transcription factor GAL4 (Accession # AF264724) were cloned in 5′-upstream of a 68 bp-long minimal MMTV promoter (Accession # V01175). The minimal MMTV promoter section contains a CCAAT box and a TATA element in order to enable efficient transcription by RNA polymerase II. The cloning and sequencing of the GAL4-MMTV construct took place in analogy to the description of Sambrook J. et. al. (Molecular cloning, Cold Spring Harbor Laboratory Press, 1989). Then the complete Photinus pyralis gene (Accession # M15077) was cloned in 3′-downstream of the GAL4-MMTV element. After sequencing, the luciferase reporter element consisting of five GAL4 binding sites, MMTV promoter and luciferase gene was recloned into a plasmid which confers zeocin resistance in order to obtain the plasmid pdeltaM-GAL4-Luc-Zeo. This vector was transfected into HEK cells in accordance with the statements in Ausubel, F. M. et al. (Current protocols in molecular biology, Vol. 1-3, John Wiley & Sons, Inc., 1995).
In a second step, the PPARalpha fusion protein (GR-GAL4-humanPPARalpha-LBD was introduced into the stable cell clone described. For this purpose, initially the cDNA coding for the N-terminal 76 amino acids of the glucocorticoid receptor (Accession # P04150) was linked to the cDNA section coding for amino acids 1-147 of the yeast transcription factor GAL4 (Accession # P04386). The cDNA of the ligand-binding domain of the human PPARalpha receptor (amino acids S167-Y468; Accession # S74349) was cloned in at the 3′-end of this GR-GAL4 construct. The fusion construct prepared in this way (GR-GAL4-humanPPARalpha-LBD) was recloned into the plasmid pcDNA3 (Invitrogen) in order to enable constitutive expression therein by the cytomegalovirus promoter. This plasmid was linearized with a restriction endonuclease and stably transfected into the previously described cell clone containing the luciferase reporter element. The finished PPARalpha reporter cell line which contains a luciferase reporter element and constitutively expresses the PPARalpha fusion protein (GR-GAL4-human PPARalpha-LBD) was isolated by selection with zeocin (0.5 mg/ml) and G418 (0.5 mg/ml).
The activity of PPARalpha agonists is determined in a 3-day assay which is described below: […]

The subject of assay [1] is PPARdelta/PPARalpha. The note with it: two weeks clinical trials, healthy volunteers; cited from earlier work.
The test system of assay [2] is PPARdelta/PPARalpha. To be noted: rhesus and cynomolgus monkeys; cited from earlier work.
Assay [3] has as its target T3, PPARdelta (Macaca mulatta, UniProt I0FFS1).
T3 sequence (I0FFS1 1-441): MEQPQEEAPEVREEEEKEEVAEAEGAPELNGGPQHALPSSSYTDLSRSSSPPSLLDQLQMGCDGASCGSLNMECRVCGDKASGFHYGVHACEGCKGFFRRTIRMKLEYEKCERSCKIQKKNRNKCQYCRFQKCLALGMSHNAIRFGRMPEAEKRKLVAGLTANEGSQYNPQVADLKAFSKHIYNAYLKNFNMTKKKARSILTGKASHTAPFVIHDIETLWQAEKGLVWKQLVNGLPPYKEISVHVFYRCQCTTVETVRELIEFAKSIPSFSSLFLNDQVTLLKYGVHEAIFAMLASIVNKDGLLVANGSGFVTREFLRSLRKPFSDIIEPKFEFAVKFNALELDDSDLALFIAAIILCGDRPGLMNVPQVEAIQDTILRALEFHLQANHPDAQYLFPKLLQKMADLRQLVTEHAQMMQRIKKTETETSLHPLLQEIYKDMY
The note with it: obese, insulin resistant rhesus monkeys; cited from earlier work.

The subject of assay [4] is PPARdelta. The note with it: diabetic animal model; cited from earlier work.
Setting [5] is: GR-GAL4-humanPPARalpha-LBD, read-out: PPARalpha EC50.
Setting [6] is: read-out: PPARalpha EC50 values (range given).

Where two headings read alike, the source gives them in different places.

A word on the EC50: it is the concentration giving half of the maximal effect. For `CC1(C)CN(S(=O)(=O)c2ccc(-c3nc(=O)o[nH]3)cc2)c2ccc(-c3ccc(C(F)(F)F)cc3)cc21` [Example 2, 3-{4-[3,3-Dimethyl-5-(4-trifluoromethyl-phenyl)-2,3-dihydro-indole-1-sulfonyl]-phenyl}-2H-[1,2,4]oxadiazol-5-one], the EC50 is 15 nM on human PPARdelta, 3520 nM on human PPARalpha (setting [5]) and 1000 to 5000 nM on human PPARalpha (setting [6]).
Regarding `O=c1[nH]c(-c2ccc(S(=O)(=O)N3CCc4cc(-c5ccc(C(F)(F)F)cc5)ccc43)cc2Cl)no1` [Example 3, 3-{2-Chloro-4-[5-(4-trifluoromethyl-phenyl)-2,3-dihydro-indole-1-sulfonyl]-phenyl}-4H-[1,2,4]oxadiazol-5-one], the EC50 at human PPARdelta was 3 nM; on human PPARalpha (setting [5]) it was 1110 nM; on human PPARalpha (setting [6]), 1000 to 5000 nM.
For the molecule `CC1(C)CN(S(=O)(=O)c2ccc(-c3nc(=O)o[nH]3)c(Cl)c2)c2ccc(-c3ccc(C(F)(F)F)cc3)cc21` [Example 4, 3-{2-Chloro-4-[3,3-dimethyl-5-(4-trifluoromethyl-phenyl)-2,3-dihydro-indole-1-sulfonyl]-phenyl}-2H-[1,2,4]oxadiazol-5-one], at human PPARalpha (setting [6]), the EC50 is 1000 to 5000 nM.
Consider `CCCc1c(OCCCSc2nnc(SCC(=O)O)s2)ccc(C(C)=O)c1O` [YM-16638], for which the plasma lipids entry was “acts in a similar manner” with PPARdelta/PPARalpha [1] and “significantly lowers” in the assay with PPARdelta/PPARalpha [2].
In the case of `Cc1cc(SCc2sc(-c3ccc(C(F)(F)F)cc3)nc2C)ccc1OCC(=O)O` [GW501516], on PPARdelta [3], the HDL-cholesterol result is “raises”, the insulin levels result was “decreases”, the “plasma LDL-cholesterol” value was “decreases” and the triglycerides entry was “decreases”.
`CCCc1c(OCCCOc2ccc(OCC(=O)O)cc2)ccc(C(C)=O)c1O` [Example L-165041]: in the assay with PPARdelta [4], the plasma cholesterol entry is reported as “raises”.
As to `O=c1[nH]c(-c2ccc(S(=O)(=O)N3CCc4cc(-c5ccc(C(F)(F)F)cc5)ccc43)cc2)no1` [Example 1, 3-{4-[5-(4-Trifluoromethyl-phenyl)-2,3-dihydro-indole-1-sulfonyl]-phenyl}-4H-[1,2,4]oxadiazol-5-one], the EC50 at human PPARalpha (setting [6]) is 1000 to 5000 nM.
Turning to `O=c1nc(-c2ccc(S(=O)(=O)N3CCc4ccc(-c5ccc(C(F)(F)F)cc5)cc4C3)cc2Cl)[nH]o1` [Example 5, 3-{2-Chloro-4-[7-(4-trifluoromethyl-phenyl)-3,4-dihydro-1H-isoquinoline-2-sulfonyl]-phenyl}-2H-[1,2,4]oxadiazol-5-one], the values for the concentration for a half-maximal effect (EC50) on human PPARdelta, on human PPARalpha (setting [5]) and on human PPARalpha (setting [6]) were 35 nM, 1640 nM and 1000 to 5000 nM, respectively.

(Values after US8173674B2, “Sulfonyl-phenyl-2H-[1,2,4]oxadiazol-5-one derivatives, processes for their preparation and their use as pharmaceuticals” (Sanofi-Aventis, priority 2006, dated 2012).)
